The test system of this test is Spodoptera littoralis. Description: Antifeedant activity against Spodoptera littoralis. Type of test: functional.

The values that follow come from ChEMBL document CHEMBL3045852, “Synthesis of limonoid CDE fragments related to limonin and nimbinim” (2010).

On to `CC1(C)CC(=O)C[C@@]2(C)[C@H](c3ccoc3)C(=O)[C@H]3O[C@@]312` (relative stereo), for which the AFI is 45%.
Next, `CC1(C)CC(=O)C[C@@]2(C)[C@H](c3ccsc3)C(=O)[C@H]3O[C@@]312`: 24%.
